According to patent US8076347B2, “Compounds and methods for the treatment of cancer” (University of Georgia Research Foundation, Inc., priority 1995, dated 2011):
Entries after “also recorded” stand apart in the source; their conditions may differ.

Tests used:
tumor cell lines = type: cell-based
HepG2 cells = assay: Activity against HepG2 cells in nude mice; type: in vivo
[1] = molecular target: human deoxycytidine kinase (Homo sapiens, UniProt P27707); assay: In vitro enzymatic studies of phosphorylation; type: biochemical
[2] = Phosphorylation to nucleotides in vivo
Leukemia P388 cells = assay: In vivo treatment of leukemia P388 cells implanted ip in BDF1 mice; conditions: 25 × 2 × 5 mg/kg ip, twice a day on days 1 to 5
Excerpt: 10^6 Leukemia P388 cells were implanted ip to BDF1 mice obtained from Southern Research Institute, Alabama.

Colon 38 tumor cells = assay: In vivo treatment of Colon 38 tumor cells implanted sc in BDF1 mice; conditions: 25 mg/kg/dose twice daily for five days
Excerpt: Colon 38 tumor cells were implanted sc to BDF1 mice.

cytidine deaminase = cytidine deaminase (Homo sapiens, UniProt P32320); assay: Enzymatic studies of deamination; type: biochemical
cytidine deaminase, sequence (P32320 whole entry, species assumed): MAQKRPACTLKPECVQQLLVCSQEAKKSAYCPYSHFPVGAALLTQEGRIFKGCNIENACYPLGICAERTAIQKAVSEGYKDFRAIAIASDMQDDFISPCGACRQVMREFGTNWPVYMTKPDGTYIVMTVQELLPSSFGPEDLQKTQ

human deoxycytidine kinase, sequence (P27707 whole entry): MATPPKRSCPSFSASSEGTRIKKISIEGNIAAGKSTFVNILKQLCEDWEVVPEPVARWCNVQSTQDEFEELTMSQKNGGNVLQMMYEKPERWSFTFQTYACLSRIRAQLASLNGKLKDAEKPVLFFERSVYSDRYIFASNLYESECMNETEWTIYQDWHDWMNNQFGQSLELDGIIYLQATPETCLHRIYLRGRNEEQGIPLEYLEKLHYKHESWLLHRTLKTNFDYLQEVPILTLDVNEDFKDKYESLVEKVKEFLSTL

O=c1ccn(C2COC(CO)O2)c(=O)[nH]1 (single isomer, unassigned; (-)) [(−)-OddU, reference compound]
cytotoxicity in all of the tumor cell lines tested (tumor cell lines): not toxic

Nc1ccn([C@@H]2CO[C@H](CO)O2)c(=O)n1 [(−)-OddC, (−)-(2S,4S)-1-(2-hydroxymethyl-1,3-dioxolan-4-yl)cytosine]
activity against HepG2 cells in nude mice (HepG2 cells): active | effectiveness compared with AraC (tumor cell lines; KB, DU-145 and PC-3 cell lines): significantly more effective than AraC | cytotoxicity in all of the tumor cell lines tested (tumor cell lines): more cytotoxic than AraC | phosphorylation by human deoxycytidine kinase [1]: can be phosphorylated by this enzyme | phosphorylation to mono-, di- and tri-phosphate nucleotide [2]: can be phosphorylated | Cures/Total (survivors equal or greater than 45 day life span) (Leukemia P388 cells; 5 mg/kg): 1/6 | ILS (Increased Life Span percent above control) (Leukemia P388 cells; 10^6 P388 cells ip on day 0): 103% | colon tumor cell growth (FIG. 2) (Colon 38 tumor cells): retarded | deamination / substrate for deaminase (cytidine deaminase): not a substrate for deaminase; also recorded: not deaminated

Nc1ccn([C@@H]2O[C@H](CO)[C@@H](O)[C@@H]2O)c(=O)n1 [AraC, Cytosine arabinoside, reference compound]
activity against HepG2 cells in nude mice (HepG2 cells): inactive
